Assay results as given in patent publication US12122760B2, “Compound, composition, and use thereof in preparation of drug” (CHANGSHA ZEDA MEDICAL TECH. CO., LTD, priority 2019, dated 2024).

Experiments:
VCaP cells = test: Inhibiting effect on VCaP cell proliferation (MTS); assay type: cell-based; conditions: 4 days treatment, FIG. 6; for cell proliferation inhibitory effect compared with positive control drug MDV3100: VCaP cells
Method: Androgen-sensitive prostate cancer cell (VCaP cells) are cultured in a 96-well plate. The VCaP cells are able to proliferate in a medium supplemented with 10 nM of the DHT. After treating the cells with the drugs for 4 days, we measure the effects of the drugs on the proliferation of the prostate cancer cells.
The VCaP cells are cultured by using 5% CSS and 1640 medium without phenol red, and inoculated in the 96-well plate. 1×10^4 cells are added to each well, and incubated overnight to make the cells stick to a wall. Different concentrations of the drugs are added on the second day. After treating the cells with the drugs for 4 days, cell viability is measured by the MTS kit (Promega, USA). To each well, 10% of an MTS reagent is added, and incubation continued for 2 hours. The absorbance value at […] is then measured by the multi-functional microplate reader. The Graphpad Prism software is used to draw a curve by using the drug concentration as an abscissa and using the absorbance value of the drug treatment/the absorbance value of the blank treatment cell as an ordinate.

AR-LBD (GST) = target: T1, AR-LBD (GST) (Rattus norvegicus, UniProt P15207); test: PolarScreen Androgen Receptor (AR) Competitor Assay, binding experiment of the antagonist and AR; conditions: fluorescence polarization, incubated 6 hours, FIG. 1; read-out: IC50 of the drug and AR-LBD binding
T1 construct: purchased Life technologies company, USA
T1 sequence (P15207 651-882 limits assumed): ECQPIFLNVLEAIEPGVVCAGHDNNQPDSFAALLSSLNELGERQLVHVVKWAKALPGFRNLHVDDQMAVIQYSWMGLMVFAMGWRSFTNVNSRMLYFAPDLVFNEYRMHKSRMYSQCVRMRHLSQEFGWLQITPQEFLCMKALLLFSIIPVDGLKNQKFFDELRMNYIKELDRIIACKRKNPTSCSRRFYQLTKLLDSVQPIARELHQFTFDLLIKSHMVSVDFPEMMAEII
Text: PolarScreen™ Androgen Receptor (AR) Competitor Assay, Green kit (Life technologies company, USA) is used to test the affinity of the antagonist to AR-LBD (GST). The mechanism of the experiment is that the AR-LBD is combined with a small molecule fluormone tracer (Fluormone Tracer), and an antagonist added can competitively bind with AR-LBD so as to replace the fluormone tracer, and the replaced fluormone tracer […], and the value of the fluorescence polarization is inversely proportional to the number of the replaced tracers.
A specific process is as follows: the drug is dissolved into 500 uM by using DMSO, and then diluted to 244 nM by double dilution concentration gradients in a 96-well plate. A 10 uL of a reaction system AR-LBD+Tracer is configured in a 384-well plate and 10 uL of the drug solution is added. The positive control is 10 uL of AR-LBD+Tracer with 10 uL of DHT added. The 384-well plate is wrapped by tin foil and incubated for 6 hours in the dark. The fluorescence polarization value is read on a multi-function microplate reader. Graphpad Prism software is used to draw a drug concentration as an abscissa, and the fluorescence polarization value is used as an ordinate for drawing a curve. […] Herein, the DHT, MDV3100, and ARN509 are positive controls.

androgen receptor (AR) = target: T2, androgen receptor (AR) (Homo sapiens, UniProt P10275); test: Luciferase reporter gene experiment (MMTV-LUC + pSV-AR in 293T cells); assay type: cell-based; conditions: 10 nM DHT, FIG. 2
T2 construct: expressed in transfected cells; host or cells: 293T cells
T2 sequence (P10275 1-920): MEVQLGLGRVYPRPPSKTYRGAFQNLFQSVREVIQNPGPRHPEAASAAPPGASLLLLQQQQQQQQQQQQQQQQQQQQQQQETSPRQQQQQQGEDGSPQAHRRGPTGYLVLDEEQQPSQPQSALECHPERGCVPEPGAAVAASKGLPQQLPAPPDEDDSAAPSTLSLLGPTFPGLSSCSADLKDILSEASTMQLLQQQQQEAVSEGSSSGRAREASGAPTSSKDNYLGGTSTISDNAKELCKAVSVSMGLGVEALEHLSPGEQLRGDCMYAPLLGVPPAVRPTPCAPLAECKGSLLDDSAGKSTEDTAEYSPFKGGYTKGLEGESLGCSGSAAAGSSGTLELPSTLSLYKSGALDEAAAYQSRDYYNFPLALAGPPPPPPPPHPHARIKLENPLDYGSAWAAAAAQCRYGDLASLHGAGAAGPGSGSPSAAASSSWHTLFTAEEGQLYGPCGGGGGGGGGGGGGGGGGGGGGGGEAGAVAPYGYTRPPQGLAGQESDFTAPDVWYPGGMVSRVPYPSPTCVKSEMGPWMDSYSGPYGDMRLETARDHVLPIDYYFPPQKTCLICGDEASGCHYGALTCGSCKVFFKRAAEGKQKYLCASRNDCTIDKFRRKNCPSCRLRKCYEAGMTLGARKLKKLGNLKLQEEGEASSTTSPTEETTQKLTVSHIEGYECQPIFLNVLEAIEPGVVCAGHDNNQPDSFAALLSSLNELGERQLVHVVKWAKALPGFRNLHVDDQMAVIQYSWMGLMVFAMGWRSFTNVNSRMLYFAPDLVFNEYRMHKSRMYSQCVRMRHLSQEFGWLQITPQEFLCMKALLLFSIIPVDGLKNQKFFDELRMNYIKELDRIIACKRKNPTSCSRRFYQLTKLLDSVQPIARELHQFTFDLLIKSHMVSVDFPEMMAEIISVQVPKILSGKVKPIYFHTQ
Method: 293T cells are cultured in a 96-well plate. AR plasmids and luciferase genes with AR target promoters are co-transfected in the 293T cells. AR activates the target promoters to express luciferase, and the expression level of the luciferase is directly proportional to AR activation. Adding DHT to the cells can activate AR and express the luciferase, thus enhancing fluorescence signal detection. By detecting the fluorescent signal, it can be examined whether an added drug has AR antagonist activity.
The luciferase reporter gene plasmid MMTV-LUC containing the androgen receptor (AR) target promoters and the plasmid pSV-AR expressing the androgen receptor (AR) are constructed. The 293T cells are inoculated in a 96-well plate, wherein each well containing 1×10^4 cells. The cells are incubated overnight to stick to the wall. On the second day, Lipofectamine® 3000 (Life technologies, USA) is used to transfect the plasmid into the cells. Each well is added with 180 ng of MMTV-LUC plasmid and 20 ng of pSV-AR plasmid. On the third day, each well is added with 10 nM of the DHT and the drugs of different concentrations of 1 nM, 10 nM, 100 nM, 1 uM, 10 uM, 25 uM, 50 uM respectively. The control is 10 nM of the DHT. On the fifth day, a luciferase reporter gene detection kit (Biyuntian company, China) is used to process the cells. 100 uL of cell lysate is added to the 96-well plate, and lyse for 20 min. Then centrifuging is performed at 4 degrees and 10000 g for 3 min. 50 uL of supernatant is taken and 100 uL of a luciferase detection reagent is added. After mixing, chemiluminescence is immediately detected on the multi-functional microplate reader. Graphpad Prism software is used to draw a curve by using the drug concentration as an abscissa and using drug fluorescence value/positive control fluorescence value as an ordinate. Herein MDV3100 is the positive control.

[1] = tested on: Histone deacetylase (HDAC); test: HDAC inhibitory activity: Kac-tubulin Western Blot in VCaP cells; assay type: cell-based; conditions: 10 uM drug, 24 h, FIG. 4
Method: (§1) The VCap cells are cultured in the 6-well plate. After treating the VCap cells with the drugs for 24 hours, acetylation levels of the tubulin in the cytoplasm and the H3 protein in the nucleus are examined by the western blot. An experiment process is as follows:
The VCaP cells are spread in the 6-well plate. 5×10^5 cells are inoculated per well, and incubated overnight to make the cells stick to a wall. On the second day, 10 uM of the drug is added per well. After being incubated for 24 h, the cells are collected, and lysed to extract the cell total protein. The Western Blot method is used to detect the expression levels of Kac-tubilin (localized cytoplasm) in the cells after treating with the different drugs.

[2] = tested on: Histone deacetylase (HDAC); test: HDAC inhibitory activity: Kac-H3 Western Blot in VCaP cells; assay type: cell-based; conditions: 10 uM drug, 24 h, FIG. 5
Method: as §1
The VCaP cells are spread in the 6-well plate. 5×10^5 cells are inoculated per well, and incubated overnight to make the cells stick to a wall. Then 10 uM of the drug is added to each well. The cells are collected after being incubated for 24 h. The EpiQuik Total Histone Extraction kit (Epigentek, USA) is used to extract the histones, and the Western Blot method is used to detect expression levels of Kac-H3 (localized cell nucleus) in the cells after adding the different drugs.

| SMILES | inhibitory effect on the VCap cell proliferation, from high to low (VCaP cells) | cell proliferation inhibitory effect compared with positive control drug MDV3100 (VCaP cells) | IC50 (AR-LBD (GST)) | antagonist effect on the AR, antagonistic ability from high to low (androgen receptor (AR)) | acetylation of the tubulin in the cytoplasm (HDAC inhibitory activity) [1] | H3 acetylation in the nucleus (HDAC inhibitory activity) [2] |
| --- | --- | --- | --- | --- | --- | --- |
| CC1(C)C(=O)N(c2cnc(C#N)c(C(F)(F)F)c2)C(=S)N1c1ccc(C(=O)NO)c(F)c1 [Zeta 33, 4-(3-(6-cyano-5-(trifluoromethyl)pyridin-3-yl)-5,5-dimethyl-4-oxo-2-thioimidazolidine-1-yl)-2-fluoro-N-hydroxybenzamide] | Zeta55>Zeta32>Zeta33>Zeta34>Zeta57 | better than that of the positive control drug MDV3100 | 27.5 µM | Zeta32>Zeta55>Zeta34>Zeta57>Zeta33 | – | – |
| CC1(C)C(=O)N(c2ccc(C#N)c(C(F)(F)F)c2)C(=S)N1c1ccc(C(=O)NO)c(F)c1 [Zeta 32, 4-(3-(4-cyano-3-(trifluoromethyl)phenyl)-5,5-dimethyl-4-oxo-2-thioimidazolidine-1-yl)-2-fluoro-N-hydroxybenzamide] | Zeta55>Zeta32>Zeta33>Zeta34>Zeta57 | better than that of the positive control drug MDV3100 | 25.1 µM | Zeta32>Zeta55>Zeta34>Zeta57>Zeta33 | superior | superior |
| CC1(C)C(=O)N(c2ccc(C#N)c(Cl)c2)C(=S)N1c1ccc(C(=O)NO)c(F)c1 [Zeta 34, 4-(3-(3-chloro-4-cyanophenyl)-5,5-dimethyl-4-oxo-2-thioimidazolidine-1-yl)-2-fluoro-N-hydroxybenzamide] | Zeta55>Zeta32>Zeta33>Zeta34>Zeta57 | – | – | Zeta32>Zeta55>Zeta34>Zeta57>Zeta33 | – | superior |
| N#Cc1ncc(N2C(=O)C3(CCC3)N(c3ccc(C(=O)NO)c(F)c3)C2=S)cc1C(F)(F)F [Zeta 57, 4-(7-(6-cyano-5-(trifluoromethyl)pyridin-3-yl)-8-oxo-6-thio-5,7-diazaspiro[3.4]octane-5-yl)-2-fluoro-N-hydroxybenzamide] | Zeta55>Zeta32>Zeta33>Zeta34>Zeta57 | – | – | Zeta32>Zeta55>Zeta34>Zeta57>Zeta33 | – | superior |
